According to PubChem BioAssay AID200 (DTP/NCI, 2004):
Where “and” joins values, the source holds several entries; their conditions need not be identical. Equal entries are not always repeated. Inconclusive results and toxic doses are left out.

System: B6C3F1 mice, B16 melanoma ip, median survival T/C
Test: NCI In Vivo Anticancer Drug Screen. Data for tumor model B16 Melanoma (intraperitoneal) in B6C3F1 mice
Details: endpoint: median survival time, schedule: Q01DX009 (ip), higher = longer survival
Protocol: The antitumor activity of compounds was measured in mice bearing transplantable tumors. Survival or tumor size were measured and the results are expressed as the measurement made in the treated group (T) divided by the measurement made in the vehicle treated control group (C). The tumor model used in this assay is B16 Melanoma (intraperitoneal) in B6C3F1 mice

[1] = dose: 30.0 mg/kg/injection, vehicle: saline with Tween-80
[2] = dose: 50.0 mg/kg/injection, vehicle: saline with Tween-80
[3] = dose: 100.0 mg/kg/injection, vehicle: saline with Tween-80
[4] = dose: 200.0 mg/kg/injection, vehicle: saline with Tween-80
[5] = dose: 12.5 mg/kg/injection, vehicle: saline with Tween-80
[6] = dose: 25.0 mg/kg/injection, vehicle: saline with Tween-80
[7] = dose: 25.0 mg/kg/injection, vehicle: saline
[8] = dose: 50.0 mg/kg/injection, vehicle: saline
[9] = dose: 100.0 mg/kg/injection, vehicle: saline
[10] = dose: 12.5 mg/kg/injection, vehicle: saline

C=C1C(=O)OC2/C=C(\C)CC(O)/C=C(/CO)CC(OC(=O)/C(C)=C/C)C12 (stereo not given)
T/C (dose: 7.5 mg/kg/injection, vehicle: saline + alcohol): 115 % of control | T/C (dose: 7.5 mg/kg/injection, vehicle: saline with Tween-80): 102 % of control | T/C (dose: 15.0 mg/kg/injection, vehicle: saline + alcohol): 123 % of control | T/C (dose: 15.0 mg/kg/injection, vehicle: saline with Tween-80): 103 % of control | T/C (dose: 15.0 mg/kg/injection, vehicle: saline): 98 % of control | T/C [1]: 97 % of control | T/C (dose: 30.0 mg/kg/injection, vehicle: saline): 116 % of control | T/C (dose: 60.0 mg/kg/injection, vehicle: saline + alcohol): 155 % of control | T/C (dose: 60.0 mg/kg/injection, vehicle: saline with Tween-80): 98 % of control | T/C (dose: 60.0 mg/kg/injection, vehicle: saline): 120 % of control

COc1ccc(OC)c(/C=C/c2ccnc3ccccc23)c1
T/C (dose: 50.0 mg/kg/injection, vehicle: saline sonified): 95 % of control | T/C (dose: 100.0 mg/kg/injection, vehicle: saline sonified): 107 % of control | T/C (dose: 200.0 mg/kg/injection, vehicle: saline sonified): 117 % of control

CN(C)CCNc1ccc(CO)c2sc3ccc(O)cc3c(=O)c12
T/C (dose: 18.0 mg/kg/injection, vehicle: saline with Tween-80): 327 % of control | T/C [1]: 218 % of control | T/C [2]: 295 % of control | T/C (dose: 83.33 mg/kg/injection, vehicle: saline with Tween-80): 327 % of control

Nc1nc(-c2cccc(S(=O)(=O)O)c2)c(Br)c(=O)[nH]1
T/C [3]: 118 % of control | T/C [4]: 122 % of control

COc1ccc(/C(C#N)=C2\OC(=O)c3ccccc32)cc1OC
T/C (dose: 3.12 mg/kg/injection, vehicle: saline with Tween-80): 95 % of control | T/C (dose: 6.25 mg/kg/injection, vehicle: saline with Tween-80): 93 % of control | T/C [5]: 107 % of control | T/C [6]: 88 % of control | T/C [2]: 91 % of control | T/C [4]: 88 % of control

CCCCCC1c2cc(O)ccc2OC1N1CCOCC1 (stereo not given)
T/C (dose: 6.0 mg/kg/injection, vehicle: saline with Tween-80): 90 % of control | T/C (dose: 12.0 mg/kg/injection, vehicle: saline with Tween-80): 103 % of control | T/C [5]: 106 % of control | T/C [6]: 96 % of control and 107 % of control | T/C [2]: 98 % of control and 102 % of control | T/C [3]: 94 % of control and 106 % of control | T/C [4]: 96 % of control and 97 % of control

O=C(NC(Cc1ccccc1)C(=O)O)c1ccccc1 (stereo not given)
T/C [6]: 112 % of control | T/C [2]: 112 % of control and 90 % of control | T/C [3]: 96 % of control and 100 % of control

CC(C)CC(NC(=O)OCc1ccccc1)C(=O)O (stereo not given)
T/C [5]: 108 % of control | T/C [6]: 102 % of control | T/C [2]: 102 % of control and 106 % of control | T/C [3]: 112 % of control and 101 % of control | T/C [4]: 105 % of control

CCCCC(CC)(CC(=N)C(C)(C)C)c1ccccc1 (stereo not given)
T/C (dose: 25.0 mg/kg/injection, vehicle: saline + Tween-80 + alcohol): 104 % of control | T/C (dose: 50.0 mg/kg/injection, vehicle: saline + Tween-80 + alcohol): 96 % of control

CC(=O)CC(=O)CCC(=O)O
T/C [7]: 97 % of control | T/C [8]: 97 % of control | T/C [9]: 93 % of control

CC(C)(C)OC(=O)NC(Cc1c[nH]c2ccccc12)C(=O)ON1C(=O)CCC1=O (stereo not given)
T/C [5]: 89 % of control | T/C [6]: 100 % of control | T/C [2]: 88 % of control

N[C@@H](C[C@H]1CCC(=O)[C@@H]2O[C@H]12)C(=O)O
T/C (dose: 25.0 mg/kg/injection, vehicle: saline + alcohol): 99 % of control | T/C (dose: 50.0 mg/kg/injection, vehicle: saline + alcohol): 110 % of control | T/C (dose: 400.0 mg/kg/injection, vehicle: saline + alcohol): 155 % of control

CC(NC(=O)C(CO)NC(=O)CN)C(=O)O (stereo not given)
T/C (dose: 100.0 mg/kg/injection, vehicle: Klucel (hydroxypropylcellulose) (HPC)): 98 % of control | T/C (dose: 200.0 mg/kg/injection, vehicle: Klucel (hydroxypropylcellulose) (HPC)): 98 % of control | T/C (dose: 400.0 mg/kg/injection, vehicle: Klucel (hydroxypropylcellulose) (HPC)): 98 % of control

c1ccc(CN2CCOC2)cc1
T/C [10]: 100 % of control and 101 % of control | T/C [7]: 101 % of control and 108 % of control | T/C [8]: 98 % of control and 102 % of control | T/C [9]: 112 % of control and 102 % of control | T/C (dose: 200.0 mg/kg/injection, vehicle: saline): 113 % of control

NCC1CCC(C(=O)O)CC1 (stereo not given)
T/C [5]: 102 % of control | T/C [6]: 101 % of control | T/C [2]: 101 % of control | T/C [3]: 101 % of control | T/C [4]: 94 % of control

OCC(O)C(O)C(O)C(O)CO (stereo not given)
T/C (dose: 75.0 mg/kg/injection, vehicle: saline): 107 % of control | T/C (dose: 150.0 mg/kg/injection, vehicle: saline): 104 % of control | T/C (dose: 300.0 mg/kg/injection, vehicle: saline): 112 % of control | T/C (dose: 600.0 mg/kg/injection, vehicle: saline): 112 % of control | T/C (dose: 1200.0 mg/kg/injection, vehicle: saline): 98 % of control

C1OC1C1CO1 (stereo not given)
T/C (dose: 1.25 mg/kg/injection, vehicle: saline): 92 % of control and 104 % of control | T/C (dose: 2.5 mg/kg/injection, vehicle: saline): 91 % of control and 101 % of control (2×) | T/C (dose: 5.0 mg/kg/injection, vehicle: saline): 113 % of control and 103 % of control and 105 % of control | T/C (dose: 10.0 mg/kg/injection, vehicle: saline): 117 % of control and 122 % of control | T/C (dose: 20.0 mg/kg/injection, vehicle: saline): 118 % of control and 121 % of control | T/C (dose: 40.0 mg/kg/injection, vehicle: saline): 161 % of control

Cc1ccc(NN=O)nc1
T/C (dose: 0.75 mg/kg/injection, vehicle: water): 114 % of control | T/C (dose: 1.5 mg/kg/injection, vehicle: water): 120 % of control | T/C (dose: 1.56 mg/kg/injection, vehicle: water): 112 % of control | T/C (dose: 3.0 mg/kg/injection, vehicle: water): 120 % of control | T/C (dose: 6.0 mg/kg/injection, vehicle: water): 124 % of control

CCCC(NC(=O)OCc1ccccc1)C(=O)O (stereo not given)
T/C [3]: 92 % of control | T/C [4]: 90 % of control

O=CC(=O)c1ccc(O)cc1
T/C (dose: 6.25 mg/kg/injection, vehicle: saline): 94 % of control | T/C [10]: 99 % of control | T/C [7]: 108 % of control | T/C [8]: 120 % of control

Cc1ccc2c(c1)n([O-])c1cc(Cl)ccc1[n+]2=O
T/C [5]: 105 % of control | T/C [6]: 101 % of control | T/C [2]: 122 % of control | T/C [4]: 111 % of control

CCOC(OCC)C(=O)OCC(=O)[C@]1(O)Cc2c(O)c3c(c(O)c2[C@@H](OC2CC(N)C(O)C(C)O2)C1)C(=O)c1c(OC)cccc1C3=O (stereo not given in full)
T/C (dose: 0.12 mg/kg/injection, vehicle: water): 155 % of control | T/C (dose: 0.13 mg/kg/injection, vehicle: water): 165 % of control | T/C (dose: 0.25 mg/kg/injection, vehicle: water): 177 % of control and 182 % of control | T/C (dose: 0.5 mg/kg/injection, vehicle: water): 208 % of control and 285 % of control | T/C (dose: 1.0 mg/kg/injection, vehicle: water): 189 % of control and 285 % of control | T/C (dose: 2.0 mg/kg/injection, vehicle: water): 212 % of control and 285 % of control | T/C (dose: 4.0 mg/kg/injection, vehicle: water): 285 % of control

CC(=O)Nc1c2sscc-2n(C)c1=O
T/C (dose: 0.19 mg/kg/injection, vehicle: saline): 105 % of control | T/C (dose: 0.39 mg/kg/injection, vehicle: saline): 93 % of control | T/C (dose: 0.78 mg/kg/injection, vehicle: saline): 94 % of control
